This note sets out measurements from patent US20210207153A1, “SYSTEMS AND METHODS FOR EDITING A PLANT GENOME” (PIONEER HI-BRED INTERNATIONAL, INC., priority 2018, published 2021).

“And” between values parts separate entries of the source, which are not always exact repeats. Equal values may be shown once. Where a name gives a salt, the structure may show the parent alone. Read-outs that look alike come from different tables or passages of the source.

Test [1] relates to pre-incubated microspores. As to the kind of experiment: Sucrose in osmotic medium: resistant embryo production. The format is cell-based, Brassica. The settings on record: Total of 4 reps. As for the experimental part: The purpose of this experiment was to find the optimal concentration of sucrose in the osmotic medium. Microspores were cultured for 4-7 days using 17S/10S protocol. […] The rupture disk was 900 psi. […] The diluted cultures were incubated in the light for 2-3 weeks.

The subject of test [2] is microspore-derived hypocotyls. In words: Sucrose in osmotic medium: transient GUS expression. The format is cell-based, Brassica. The settings on record: for # with GUS: 24 hypocotyls. As for the experimental part:
Experiments 3 to 7 describe work done using microspore-derived hypocotyls. Microspores were isolated as is known to those skilled in the art and cultured in NLN medium for 21 to 28 days (Swanson et al., 1987). Hypocotyls were excised from the embryos produced from the microspores when the embryos were approximately 3-5 mm in size. Microspores of cultivar 46A65 were cultured in NLN medium for approximately 21 days. On the 21st day, the NLN medium was changed and diluted (1:20) with fresh NLN medium and the embryos were cultured for 5 more days. The hypocotyls were excised from the embryos and preconditioned overnight on MMW+BAP (4 mg/l)+NAA (0.25 mg/l). The hypocotyls were transferred to osmotic medium (for example, 17% sucrose+1% agar+1 g/l MES, pH 6.0) for 4 hours and then bombarded. The DNA construct used in bombardments was PHP 18644. After bombardment, the hypocotyls were cultured on the osmotic medium for approximately between 4 and 20 hours (for example, overnight). The bombarded hypocotyls were then cultured on MMW+BAP (4 mg/l)+kanamycin (25-50 mg/l) for bud induction. Regenerated buds were cultured on MMW+kanamycin (50-100 mg/l) or MMW+BAP (0.2 mg/l)+kanamycin (50-100 mg/l) for plant regeneration. The following experiments were done to test the effect of sucrose concentration, amount of gold particle used and the effect of rupture disk on transformation frequency.
The objective was to find the appropriate concentration of sucrose in the osmotic medium (sucrose+1% agar+1 g/l MES, pH 6.0) in order to produce the highest transformation efficiency.
GUS analysis is known to those skilled in the art. The protocol can be found in numerous references, for example Wu H, McCormac A C, Elliott M C, Chen D F (1998) Agrobacterium-mediated s table transformation of cell suspension cultures of barley (Hordeum vulgare). Plant Cell Tissue and Organ Culture 54:161-171.

In test [3] the test system is non-bombarded and bombarded embryos. As to the kind of experiment: Effect of kanamycin on embryo growth in liquid medium. The format is cell-based, Brassica. The source says:
(§1) The objective was to determine the concentration of G418 that kills non-transgenic microspores. Prior to this experiment, selection was done on solid medium, not in liquid medium. Using liquid selection for Brassica transgenic cells is novel. Selection in liquid medium is advantageous for at least the following reasons: (a) it allows selection at an early stage, thereby eliminating the need for subsequent transfers of explants, (b) it allows for a cleaner selection because the explants are generally smaller when they are in liquid medium and the liquid allows all the surfaces of the explant to be exposed to the selection agent, (c) it may reduce the frequency of chimeras, and (d) a lower amount of the selection agent is needed therefore reducing the toxicity to the researcher and the environment. The effect of various concentrations of kanamycin on embryo growth in liquid medium was tested. […] Accordingly, it was difficult to discriminate transgenic tissue or embryos from non-transgenic.

The next test concerns embryos. In words: PCIB in embryo germination medium on germination frequency. It counts as cell-based, canola. As for the experimental part:
• 4. Increase embryo germination frequency • One of technical challenges in canola transformation was that embryo germination frequency was only around 20%. Antiauxin 2-(p-Chlorophenoxy)-2-methylpropionic acid (PCIB) was included in embryo germination medium BGM for inhibiting callusing. Embryo germination frequency was doubled when 0.0625-1 mg/l PCIB was added in BGM with 0.1 mM glyphosate

For another test, the system named is microspores. As for the experimental part:
• DNA constructs with promoter AT-UBIQ10 and glyphosate resistant gene GAT4621 were used in the following experiments. • 1. […] In developing canola transformation procedure, microspores were cultured for two days or three days in IM-17M and then cultured in NLN-10S for one day or not before bombardment.
• 2. Effect of CaC12 in IM-17M before bombardment and NLN-13S with 5 μM trifluralin on transformation efficiency • 15 mM calcium chloride was supplemented in IM-17M in microspore culture before bombardment.
It was further studied that calcium chloride was supplemented in NLN-13S with 5 μM trifluralin after bombardment on transformation efficiency.

Another test deals with resistant embryos. As to the kind of experiment: ABA application and embryo partial desiccation on embryo germination frequency. The format is cell-based, canola. As to the method:
To further increase embryo germination frequency, abscisic acid (ABA) at 25 μM was added in microspore culture medium NLN-10S with 0.1 -0.2 mM glyphosate 14 days after bombardment. The resistant embryos were partially desiccated in a Petri dish for one week at 25° C. The Petri dish contained a piece of Bounty paper towel with water for maintaining moisture.

The subject of test [4] is non-transgenic microspores. As to the kind of experiment: G418 selection kill curve: embryo growth and survival in liquid medium. It counts as cell-based, Brassica. The settings on record: for # Green embryos or with green island: liquid medium.
Text: as §1

Test [5] concerns pre-incubated microspores. In words: Glyphosate resistant embryo selection after bombarding pre-incubated microspores. The format is cell-based, Brassica. As to the method:
Experiments 8 to 17 describe the work done using pre-incubated microspores. The microspores were cultured in NLN-17S/10S for 2-10 days. Optimally, the microspores are cultured for 5-7 days. Embryos could not be detected with the naked eye. The embryogenic microspores were collected so that they remain viable and embryogenic with a Nitex™ sieve (15-36 um in pore size) or Percoll® (35-45%) gradient centrifugation. Pre-incubated microspores were used as bombarded materials. Any Brassica line that is capable of regenerating by microspore culture can be used. The microspores were cultured for 1-3 days in NLN-17S at 31.5° C., and then in NLN-10S for 4-5 days at 25° C. The constructs used in the bombardments were PHP18644, PHP21965, PHP22024, PHP22021, and PHP23560 (see Table 9). The constructs can be the full plasmid or the expression cassette only. For example, PHP22024 can be either the expression cassette or the full plasmid. The pre-incubated microspores were filtrated with sieves of pore size of 15 μm to 36 μm. The collected microspores were used for bombardment. The microspores were loaded on a sieve 15 μm or 20 μm on two layers of filter-paper and dried for less than one minute. […] Resistant embryos were recorded after two to three weeks of culture. […]

The mark [6] stands for this setting: 15 mM CaCl2 in IM-17M before bombardment, 24 shots.
[7] abbreviates: ABA 25 μM plus partial desiccation.

For the compound `OC[C@H]1O[C@@](CO)(O[C@H]2O[C@H](CO)[C@@H](O)[C@H](O)[C@H]2O)[C@@H](O)[C@@H]1O` [Sucrose, sucrose], the Resistant embryos/plate in test [1] (17% sucrose) is given as 2.5; in test [1] (19% sucrose), 2.1. In addition, the “# spots/hypocotyls” value in test [2] (15% sucrose) stood at 9.8; in test [2] (17% sucrose) it was 10.1; in test [2] (19% sucrose), 19.8; in test [2] (21% sucrose), 16.7. In addition, the “# total spots” value in test [2] (15% sucrose) was found to be 236; in test [2] (17% sucrose) it was 242; in test [2] (19% sucrose), 475; in test [2] (21% sucrose), 400. Also, the “# with GUS” value worked out at 23 in test [2] (15% sucrose), 23 in test [2] (17% sucrose), 23 in test [2] (19% sucrose) and 24 in test [2] (21% sucrose).

For `NC[C@H]1O[C@H](O[C@H]2[C@H](O)[C@@H](O[C@H]3O[C@H](CO)[C@@H](O)[C@H](N)[C@H]3O)[C@H](N)C[C@@H]2N)[C@H](O)[C@@H](O)[C@@H]1O` [kanamycin], the “concentration sufficient to bleach non-bombarded embryos and inhibit non-bombarded embryo growth” value in test [3] came out at 10 mg/L.

In the case of `CC(C)(Oc1ccc(Cl)cc1)C(=O)O` [PCIB, 2-(p-Chlorophenoxy)-2-methylpropionic acid], the “embryo germination frequency, change” value with embryos (0.0625-1 mg/l PCIB in BGM with 0.1 mM glyphosate) is on record as “doubled”. The Germination frequency in the test on embryos (PCIB 0.0625 mg/l) is listed as 44%; with embryos (PCIB 0.125 mg/l), 43%; in the test with embryos (PCIB 0.25 mg/l), 50%; in the test with embryos (PCIB 0.5 mg/l) it was 44%; with embryos (PCIB 1 mg/l), 44%. Moreover, the “# plantlets” value is 28 in the test on embryos (PCIB 0.0625 mg/l in BGM with 0.1 mM glyphosate, 63 embryos); 31 in the test on embryos (PCIB 0.125 mg/l, 72 embryos); 36 in the test with embryos (PCIB 0.25 mg/l, 72 embryos); 28 with embryos (PCIB 0.5 mg/l, 63 embryos); 36 in the test on embryos (PCIB 1 mg/l, 81 embryos).

In the case of `[Ca+2].[Cl-].[Cl-]` [CaCl2, calcium chloride], the “# embryos” value is recorded as 574 in the test on microspores (setting [6]); 169 with microspores (CaCl2 0 mM in IM-17M, 10 mM in NLN-13S + trifluralin, 15 shots); 300 in the test on microspores (CaCl2 0 mM in IM-17M, 20 mM in NLN-13S + trifluralin, 19 shots); 139 with microspores (CaCl2 15 mM in IM-17M, 0 mM in NLN-13S + trifluralin, 22 shots). In addition, the Embryos/shot in the test with microspores (setting [6]) stood at 23.9; in the test with microspores (CaCl2 0 mM in IM-17M, 10 mM in NLN-13S + trifluralin), 11; in the test on microspores (CaCl2 0 mM in IM-17M, 20 mM in NLN-13S + trifluralin) it was 16; with microspores (CaCl2 15 mM in IM-17M, 0 mM in NLN-13S + trifluralin), 6.

For `CC1=CC(=O)CC(C)(C)[C@@]1(O)/C=C/C(C)=C\C(=O)O` [ABA, abscisic acid], the Total shoots with resistant embryos (ABA 25 μM in NLN-10S 14 days after bombardment plus partial desiccation one week, 479 embryos) is listed as 338. For the same compound, in the test on resistant embryos (setting [7]), the Germination stood at 76.6% and the “embryo germination frequency, change” value was “significantly increased”.

With `CN[C@@H]1[C@@H](O)[C@@H](O[C@@H]2[C@@H](O)[C@H](O[C@H]3O[C@H]([C@@H](C)O)[C@@H](O)[C@H](O)[C@H]3N)[C@@H](N)C[C@H]2N)OC[C@]1(C)O` [Variant G418, G418 disulfate salt], the “# Green embryos or with green island” value in test [4] (G418 1.25 mg/l, disulfate salt) was 30 and 28; in test [4] (G418 2.5 mg/l, disulfate salt), 14 and 11; in test [4] (G418 5 mg/l), 0; in test [4] (G418 10 mg/l), 0. Besides, the “concentration sufficient to differentiate transformed cells from untransformed cells” value in test [4] (NLN with 6.5% sucrose medium) lay within 5 to 10 mg/L.

On to `O=C(O)CNCP(=O)(O)O` [glyphosate], for which the “identification of resistant embryos” value in test [5] (glyphosate 0.1 mM or 0.2 mM) is recorded as “allowed identification of resistant embryos”. Also, the selection efficiency entry in test [5] (glyphosate 0.2 mM versus 0.1 mM) was “fewer false positive results”.
